Laboratory results as given in patent publication US9765075B2, “Substituted bridged urea analogs as sirtuin modulators” (GLAXOSMITHKLINE LLC, priority 2013, dated 2017).
Numbering of substitutions follows the chain as printed.

What was measured:
Experiment in all cases: SIRT1 activation dose-response, OAcADPr assay with Ac-p53(W5) substrate
Assay type in all cases: biochemical
full-length hSIRT1 E230A = molecular target: T1, full-length hSIRT1 E230A (Homo sapiens, UniProt Q96EB6, E230A); settings: for EC50: hSIRT1 E230A, activation dose-response, Ac-p53(W5) substrate
T1 construct: His6 (C); made in house
T1 sequence (Q96EB6 1-747 E230A): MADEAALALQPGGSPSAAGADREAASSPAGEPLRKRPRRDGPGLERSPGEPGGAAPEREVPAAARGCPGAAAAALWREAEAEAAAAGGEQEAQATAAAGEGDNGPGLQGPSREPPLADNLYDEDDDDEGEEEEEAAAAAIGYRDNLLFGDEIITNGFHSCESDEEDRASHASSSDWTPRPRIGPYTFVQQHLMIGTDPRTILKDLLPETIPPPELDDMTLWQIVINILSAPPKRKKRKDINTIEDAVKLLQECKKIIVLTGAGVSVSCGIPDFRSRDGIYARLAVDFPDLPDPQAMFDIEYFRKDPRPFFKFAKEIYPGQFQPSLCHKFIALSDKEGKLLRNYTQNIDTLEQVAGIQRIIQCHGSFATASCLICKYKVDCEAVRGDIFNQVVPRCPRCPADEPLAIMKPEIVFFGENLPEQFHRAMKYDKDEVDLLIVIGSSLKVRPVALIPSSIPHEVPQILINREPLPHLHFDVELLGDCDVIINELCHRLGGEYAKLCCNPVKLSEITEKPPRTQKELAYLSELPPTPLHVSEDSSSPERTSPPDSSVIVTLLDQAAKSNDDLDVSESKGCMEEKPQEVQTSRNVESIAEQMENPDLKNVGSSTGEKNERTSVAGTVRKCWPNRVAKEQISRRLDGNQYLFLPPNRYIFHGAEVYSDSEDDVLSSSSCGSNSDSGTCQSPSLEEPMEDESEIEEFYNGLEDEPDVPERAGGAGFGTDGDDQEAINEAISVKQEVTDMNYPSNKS

full-length hSIRT1 E230K = molecular target: T2, full-length hSIRT1 E230K (Homo sapiens, UniProt Q96EB6, E230K); settings: for EC50: hSIRT1 E230K, activation dose-response, Ac-p53(W5) substrate
T2 construct: His6 (C); made in house
T2 sequence (Q96EB6 1-747 E230K): T1 sequence (Q96EB6 1-747 E230A) with A230K

full-length hSIRT1 E230Q = molecular target: T3, full-length hSIRT1 E230Q (Homo sapiens, UniProt Q96EB6, E230Q); settings: for EC50: hSIRT1 E230Q, activation dose-response, Ac-p53(W5) substrate
T3 construct: His6 (C); made in house
T3 sequence (Q96EB6 1-747 E230Q): T1 sequence (Q96EB6 1-747 E230A) with A230Q

In the case of `O=C(Nc1ccccn1)N1c2nc(-c3cccc(C(F)(F)F)c3)ccc2N2CC[C@H]1C2` [Example 7], the “EC50 fold shift (mutant EC50/wild-type EC50)” value (full-length hSIRT1 E230A) is reported as 1.19, the “RVmax fold shift = (wild-type RVmax−1)/(mutant RVmax−1)” value (shortened to “RVmax fold shift =”) (full-length hSIRT1 E230A) is reported as 3.58 and the EC50 (full-length hSIRT1 E230A) is reported as 2610 nM. For the same compound, the “EC50 fold shift (mutant EC50/wild-type EC50)” value (full-length hSIRT1 E230K) was 1.46, the “RVmax fold shift =” value (full-length hSIRT1 E230K) was 8.67 and the EC50 (full-length hSIRT1 E230K) was 3210 nM. For the same compound, the “EC50 fold shift (mutant EC50/wild-type EC50)” value (full-length hSIRT1 E230Q) was 1.53, the “RVmax fold shift =” value (full-length hSIRT1 E230Q) was 3.93 and the EC50 (full-length hSIRT1 E230Q) was 3360 nM.

`Cc1cnc2c(NC(=O)N3c4nc(-c5cccc(C(F)(F)F)c5)ccc4N4CC[C@H]3C4)cccc2n1` [Example 8] was tested, and the “EC50 fold shift (mutant EC50/wild-type EC50)” value (full-length hSIRT1 E230A) was 1.11, the “RVmax fold shift =” value (full-length hSIRT1 E230A) was 2.39 and the EC50 (full-length hSIRT1 E230A) was 530 nM. For the same compound, the “EC50 fold shift (mutant EC50/wild-type EC50)” value (full-length hSIRT1 E230K) was 1.46, the “RVmax fold shift =” value (full-length hSIRT1 E230K) was 5.36 and the EC50 (full-length hSIRT1 E230K) was 700 nM. The “EC50 fold shift (mutant EC50/wild-type EC50)” value (full-length hSIRT1 E230Q) was 1.21, the “RVmax fold shift =” value (full-length hSIRT1 E230Q) was 3.07 and the EC50 (full-length hSIRT1 E230Q) was 580 nM.
